The source of these data is US20140187593A1, “DIAGNOSTIC TEST AND TREATMENT FOR A NE[…]” (priority 2012, published 2014).

The subject of this assay is patients with VMAT2 mutation. The assay can be described thus: Clinical response of the index case to vitamin B6 or folinic acid. The format is in vivo, human. From the text: The index case was a person with global developmental delay and abnormal movements. They had first been brought to medical attention with hypotonia, loss of acquired head control, and paroxysmal stereotyped episodes of persistent eye deviation and crying lasting hours. Video-EEG monitoring had excluded seizures, and a symptom diagnosis of oculogyric crisis had been made. Development had been normal initially, but had slowed after presentation. […] […] […] They had axial hypotonia and appendicular hypertonia specifically involving extensor muscles of upper and lower extremities. Deep tendon reflexes were 2+/4 and plantars flexor. […] Gait was parkinsonian with typical shuffling, posture was stooped, and postural reflexes diminished. They walked with bilateral alternating dystonia of hands and feet with intermittent toe walking and foot inversion, and was unable to tandem walk.

As for `Nc1nc(=O)c2c([nH]1)NCC(CNc1ccc(C(=O)N[C@@H](CCC(=O)O)C(=O)O)cc1)N2C=O` (mixture of isomers) [folinic acid], the “Clinical improvement of symptoms” value is on record as “no improvement”.

`Cc1ncc(CO)c(CO)c1O.Cl` [vitamin B6]: the “Clinical improvement of symptoms” value was “no improvement”.
